# Source: patent US6083929A, “Extended type 1 chain glycosphingolipids as tumor-associated antigens” (The Biomembrane Institute, priority 1992, dated 2000)
# “Also recorded” adds a separate entry of the source. Like-named read-outs stand apart in the source and are kept apart here.
# Legend:
# MAb IMH2 = assay: TLC immunostaining / solid-phase ELISA reactivity of MAb IMH2 with GSL antigens; parameters: species or system mouse; conditions: TLC immunostaining / antibody binding on solid-phase antigen, IMH2 5 μg/ml
# Description: FIG. 8 graphically illustrates the reactivity of MAb IMH2 with various glycosphingolipids (GSLs). Serial double dilutions of various GSL antigens were added to 96-well flat-bottom assay plates (Probind plate, Falcon) in ethanol and dried. Initial concentration of GSL added to the first well was 100 ng/well. MAb binding assay was performed by ELISA as described below. Abscissa, reciprocal of antigen dilution. Ordinate, optical density reading at 490 nm. Paragloboside is abbreviated as "PG". Panel A: reactivity of type 1 chain GSLS. .circle-solid., Le^b /Le^a. .smallcircle., Le^b hexasaccharide (IV^2 FucIII^4 FucLc4). Δ, Le^a /Le^a. .quadrature. […] Panel B: reactivity of type 2 chain GSLs. .circle-solid., Le^y /Le^x (VI^2 FucV^3 FucIII^3 FucnLc6). .smallcircle., Le^y hexasaccharide ceramide (IV^2 FucIII^3 FucnLc4). Δ, Le^x /Le^x (V^3 FucIII^3 FucnLc6). .quadrature. (all of the following had similar reactivity), H1 type 2 chain (IV^2 nLc4); H2 type 2 chain (IV^2 FucnLc6); PG (nLc4); Le^x (III^3 FucnLc4). When GSL antigens were mixed with cholesterol and phosphatidylcholine in a molar ratio of 1:5:3 in ethanol and analyzed as above, the relative degrees of reactivity were essentially the same as shown in the figure.
# The binding specificity of MAb IMH2 was tested by thin-layer chromatography immunostaining of various GSL antigens by the method previously described by Magnani et al. (Anal. Biochem. 109:399-402, 1980), and modified by Kannagi et al. (Cancer Res. 43:4997-5005, 1983). IMH2 reactivity was also determined by antibody binding on solid-phase antigen as follows. Each GSL antigen, dissolved in ethanol (100 ng/50 μl), was placed in a well, serially diluted with ethanol to 0.1 ng/50 μl per well in a flat-bottom 48-well plate (Falcon, Becton-Dickinson, Lincoln Park, N.J.), and dried. The dried antigen in each well was then incubated with 1% bovine serum albumin in PBS for 1 hr at room temperature, followed by reaction with IMH2 (5 μg/ml) for 18 hr at 4° C. Each well was washed with PBS, followed by incubation with biotinylated second antibody and avidin-peroxidase conjugate as prepared in the ELISA assay kit. The orange color developed in each well was read by automated "ELISA reader" (EL312 Biokinetics Reader, Biotek Instruments, Winooski, Vt.), and optical density at […] for each well was recorded.
# anti-Le^b MAbs = assay: Reactivity of GSL with anti-Le^b MAbs; type: binding
# Description: (§1) MAb ST-421 was established as previously described (Watanabe et al., Jpn. J. Cancer Res. (Gann) 76:43-52, 1985). MAb MNH-1, which defines type 1 chain N-acetyllactosamine (Galβ1→3GlcNAcβ1→R), was prepared in laboratory of the inventors; MAb 1B2, which defines type 2 chain N-acetyllactosamine (Galβ1→4GlcNAcβ1→R), was established as previously described (Young et al., J. Biol. Chem. 256:10967-10972, 1981). Anti-Le^a MAb was obtained from Chembiomed Ltd. (Edmonton, Alberta, Canada). […] HPTLC immunostaining was performed using Whatman HPTLC plates (HP-KF) by a modified version (Kannagi et al., J. Biol. Chem. 257:4438-4442, 1982; Kannagi et al., J. Biol. Chem. 257:14865-14874, 1982) of the method originally described by Magnani et al. (Magnani et al., Anal. Biochem. 109:399-402, 1980).
# anti-Le^y MAb AH6 = assay: Reactivity of GSL with anti-Le^y MAb AH6; type: binding
# Description: as §1
# MAb MNH-1 = assay: TLC immunostaining with MAb MNH-1; type: binding; conditions: TLC immunostaining after enzymatic degradation of dimeric Le^a
# Description: as §1
# (§2) Enzymatic degradation of 1 mg dimeric Le^a was performed by sequential hydrolysis with 0.5 units of α-fucosidase (bovine kidney), 0.5 units of β-galactosidase (Cackbean), and 0.5 units of β-N-acetylglucosaminidase (bovine epididymis) (Sigma Chemical Co., St. Louis, Mo.). All reactions were carried out in 0.2 M sodium citrate (pH 4.5) for 4 hr at 37° C. in a water bath with shaking. Purification of each degradative product was performed by preparative HPTLC.
# (§3) TLC immunostaining of the purified antigen component with various MAbs was performed before and after successive enzymatic degradation. […] Bands a and b are therefore assumed to be Lc6 (Table III, structure 6) and III^4 FucLc6 (structure 13), respectively, based on their reactivity with MAbs and on further enzymatic degradation patterns.
# MAb 1B2 = assay: TLC immunostaining with MAb 1B2; type: binding; conditions: TLC immunostaining after enzymatic degradation of dimeric Le^a
# Description: as §1, §2, §3
# MAb ST-421 [1] = assay: TLC immunostaining of GSL with MAb ST-421; type: binding
# Description: as §1
# Extended sialyl-Le^a on the SLe^a -Le^a structure was verified by enzymatic degradation with sialidase to yield the same compournd as Le^a -Le^a as verified by thin layer chromatography as well as immunostaining with monoclonal antibody ST-421.
# anti-Le^a MAb = assay: Reactivity of GSL with anti-Le^a MAb; type: binding
# Description: as §1, §3
# MAb ST-421 [2] = assay: Solid-phase radioimmunoassay of glycolipids with MAb NCC-ST-421; type: binding; conditions: ST421 10 μg/ml, initial glycolipid 100 ng
# Description: FIG. 7 graphically illustrates the reactivity of dimeric Le^a, Le^a -Le^x and related glycolipids with MAb NCC-ST-421. Solid-phase radioimmunoassay with MAb ST-421 using serially-diluted dimeric Le^a, Le^a /Le^x, and various structurally-related glycoilpid antigens. Initial concentration of glycolipids was 100 ng. ST421 was used at a concentration of 10 μg/ml. A, IV^3 Galβ1→3[Fuc1→4]GlcNAcIII^3 FucnLc4 (Le^a /Le^x; structure 10 in Table III); B, V^4 III^4 Fuc2 Lc6 (dimeric Le^a; structure 11); C, IV^3 Galβ1→3[Fucα1→4]GlcNAcnLc4 (structure 8); D, III^4 FucLc4 (structure 1); E, IV^3 (Galβ1→3GlcNAcIII^3 FucnLc4 (structure 9); F, V^3 III^3 Fuc2 nLc6 (structure 7); G, IV^2 FucLc4 (structure 2); H, IV^3 Galβ1→3GlcNAcnLc4 (structure 4); I, IV^2 III^4 Fuc2 Lc4 (structure 3); J, nLc6 (structure 5); K, VI^2 FucnLc6 (type 2 H with nLc6 core; not shown in Table III); L, VI^2 V^3 Fuc2 nLc6 (Le^y with nLc6 core; not shown in Table III).
# The solid-phase radioimmunoassay as described by Kannagi et al. (Cancer Res. 43:4997-5005, 1983) was used. […] Dimeric Le^x and various other structurally related GSLs were not reactive with ST421 (FIG. 7).
substance,measurement,setting,value
IV^2 FucnLc4 [H1],reactivity of MAb IMH2 with GSL (in words),MAb IMH2,did not react
IV^2 FucLc4 [H type 1 chain],reactivity of MAb IMH2 with GSL (in words),MAb IMH2,did not react
VI^2 FucV^3 FucIII^3 FucnLc6 [Le^y /Le^x],reactivity with anti-Le^b MAbs,anti-Le^b MAbs,not with anti-Le^b
same,reactivity of MAb IMH2 with GSL (in words),MAb IMH2,reacts strongly; also recorded: reacted equally well; also recorded: reacts
same,reactivity with anti-Le^y MAb AH6,anti-Le^y MAb AH6,reacted with AH6
Lc4,reactivity of MAb IMH2 with GSL (in words),MAb IMH2,did not react
same,reactivity with MAb MNH-1,MAb MNH-1,reacted strongly
same,reactivity with MAb 1B2,MAb 1B2,did not react
IV^3 Galβ1→3[Fuc1→4]GlcNAcIII^3 FucnLc4 [Le^a /Le^x],reactivity with MAb ST-421,MAb ST-421 [1],reacted with anti-Le^a MAb as well as with MAb ST-421
same,reactivity with MAb ST-421,MAb ST-421 [1]; listed as Le^a /Le^a,react strongly; also recorded: reacted with anti-Le^a MAb as well as with MAb ST-421
same,reactivity of MAb IMH2 with GSL (in words),MAb IMH2,did not react
same,reactivity of MAb IMH2 with GSL (in words),MAb IMH2; listed as Le^a /Le^a,reacted weakly
same,reactivity with anti-Le^a MAb,anti-Le^a MAb,reacted with anti-Le^a MAb
same,reactivity with ST-421,MAb ST-421 [2],strongest reactivity; also recorded: clear preference for them compared to extended Le^a or simple Le^a
VI^2 FucnLc6 [H2],reactivity of MAb IMH2 with GSL (in words),MAb IMH2,did not react
III^4 FucLc6,reactivity with MAb MNH-1,MAb MNH-1,reacted with MAb MNH-1
same,reactivity with MAb 1B2,MAb 1B2,not with anti-Le^a or 1B2
III^4 V^4 Fuc2 Lc6 [dimeric Le^a],reactivity with MAb ST-421,MAb ST-421 [1],stained strongly
III^3 V^3 Fuc2 nLc6 [Dimeric Le^x],reactivity of MAb IMH2 with GSL (in words),MAb IMH2,reacted weakly
nLc4,reactivity of MAb IMH2 with GSL (in words),MAb IMH2,did not react
Lc6,reactivity with MAb MNH-1,MAb MNH-1,reacted with MAb MNH-1
same,reactivity with MAb 1B2,MAb 1B2,not with anti-Le^a or 1B2
